Experiments:
[1] = biological target: T1, Amine oxidase [flavin-containing] A (Homo sapiens, UniProt P21397); assay: biochemical
T1 sequence (P21397 whole entry): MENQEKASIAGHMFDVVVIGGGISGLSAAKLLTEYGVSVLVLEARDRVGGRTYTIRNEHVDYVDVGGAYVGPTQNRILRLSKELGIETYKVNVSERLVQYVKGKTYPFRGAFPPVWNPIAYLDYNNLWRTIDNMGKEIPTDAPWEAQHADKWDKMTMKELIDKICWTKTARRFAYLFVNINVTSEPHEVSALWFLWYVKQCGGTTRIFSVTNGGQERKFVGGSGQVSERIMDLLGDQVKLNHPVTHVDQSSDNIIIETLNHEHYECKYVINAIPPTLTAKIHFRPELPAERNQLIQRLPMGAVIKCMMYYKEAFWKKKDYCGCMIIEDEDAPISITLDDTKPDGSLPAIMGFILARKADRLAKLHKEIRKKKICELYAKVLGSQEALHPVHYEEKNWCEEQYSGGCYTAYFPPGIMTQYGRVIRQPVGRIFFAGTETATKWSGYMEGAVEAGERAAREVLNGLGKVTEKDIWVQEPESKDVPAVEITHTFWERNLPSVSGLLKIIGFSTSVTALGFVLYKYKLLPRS
Description: Inhibition of human recombinant MAO-A expressed in baculovirus infected insect cells by luminescence assay

[2] = biological target: T2, Amine oxidase [flavin-containing] B (Homo sapiens, UniProt P27338); assay: biochemical
T2 sequence (P27338 whole entry): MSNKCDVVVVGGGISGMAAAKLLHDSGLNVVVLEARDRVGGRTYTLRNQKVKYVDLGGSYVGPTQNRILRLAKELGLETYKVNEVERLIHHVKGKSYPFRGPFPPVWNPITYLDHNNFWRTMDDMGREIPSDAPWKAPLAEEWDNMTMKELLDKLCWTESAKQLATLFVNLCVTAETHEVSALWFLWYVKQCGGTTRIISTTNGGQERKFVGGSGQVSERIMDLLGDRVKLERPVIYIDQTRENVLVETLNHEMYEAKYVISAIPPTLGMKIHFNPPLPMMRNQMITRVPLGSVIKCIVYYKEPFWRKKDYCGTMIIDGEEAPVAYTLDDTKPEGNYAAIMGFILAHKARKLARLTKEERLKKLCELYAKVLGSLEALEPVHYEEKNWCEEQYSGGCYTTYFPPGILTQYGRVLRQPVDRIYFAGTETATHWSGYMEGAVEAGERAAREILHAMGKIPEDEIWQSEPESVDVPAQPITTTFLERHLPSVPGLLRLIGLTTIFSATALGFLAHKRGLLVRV
Description: Inhibition of human recombinant MAO-B expressed in baculovirus infected insect cells by luminescence assay

[3] = biological target: T3, Lysine-specific histone demethylase 2 (Homo sapiens, UniProt Q8NB78)
T3 sequence (Q8NB78 whole entry): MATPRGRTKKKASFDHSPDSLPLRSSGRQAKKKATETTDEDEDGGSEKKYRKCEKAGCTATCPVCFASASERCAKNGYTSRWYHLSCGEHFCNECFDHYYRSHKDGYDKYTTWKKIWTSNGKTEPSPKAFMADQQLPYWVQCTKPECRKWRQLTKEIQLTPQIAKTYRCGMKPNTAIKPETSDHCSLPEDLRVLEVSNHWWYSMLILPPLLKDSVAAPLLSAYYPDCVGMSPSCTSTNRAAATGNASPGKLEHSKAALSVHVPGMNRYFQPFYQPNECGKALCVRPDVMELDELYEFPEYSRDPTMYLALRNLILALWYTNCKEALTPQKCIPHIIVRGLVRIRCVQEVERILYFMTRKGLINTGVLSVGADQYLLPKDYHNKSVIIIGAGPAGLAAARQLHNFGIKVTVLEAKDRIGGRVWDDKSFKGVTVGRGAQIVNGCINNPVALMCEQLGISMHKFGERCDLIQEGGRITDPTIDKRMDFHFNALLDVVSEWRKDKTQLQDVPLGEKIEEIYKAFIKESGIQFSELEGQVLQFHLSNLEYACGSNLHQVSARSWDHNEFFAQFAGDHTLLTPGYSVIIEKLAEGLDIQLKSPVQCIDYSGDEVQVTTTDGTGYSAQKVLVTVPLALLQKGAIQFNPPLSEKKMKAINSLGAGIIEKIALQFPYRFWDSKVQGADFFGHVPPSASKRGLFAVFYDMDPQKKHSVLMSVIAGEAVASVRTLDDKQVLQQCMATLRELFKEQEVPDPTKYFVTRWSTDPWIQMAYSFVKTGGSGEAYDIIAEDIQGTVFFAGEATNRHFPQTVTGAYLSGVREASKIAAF
Description: Inhibition of human full length LSD2 using biotin-labeled H3K4me2 (1 to 24 residues) as substrate after 1 hr by TR-FRET assay

RPMI-8226 [4] = assay: Antiproliferative activity against human RPMI8226 cells after 3 days by MTS assay; format: functional, cell-based; settings: RPMI-8226, 72 h
MV4-11 [5] = assay: Antiproliferative activity against human MV4-11 cells after 3 days by MTS assay; format: functional, cell-based; settings: MV4-11, 72 h
RPMI-8226 [6] = assay: Antiproliferative activity against human RPMI8226 cells after 10 days by MTS assay; format: functional, cell-based; settings: RPMI-8226, 240 h
MV4-11 [7] = assay: Antiproliferative activity against human MV4-11 cells after 10 days by MTS assay; format: functional, cell-based; settings: MV4-11, 240 h

IC50 [1] [µM] | IC50 [2] [µM] | IC50 (RPMI-8226 [4]) [µM] | IC50 (MV4-11 [5]) [µM] | IC50 (RPMI-8226 [6]) [µM] | IC50 (MV4-11 [7]) [µM] | SMILES | IC50 [3] [µM]
> 100 | > 100 |  |  |  |  | COc1ncccc1CN[C@@H]1[C@H]2Cc3ccccc3[C@H]21 (racemic) | > 100
> 100 | > 100 | > 20 | > 20 | > 20 | 0.7 | N[C@H]1CC[C@H](N[C@H]2[C@H]3Cc4ccccc4[C@H]32)CC1 (racemic) | 
> 100 | > 100 |  |  |  |  | N[C@H]1CC[C@H](N[C@@H]2[C@H]3Cc4ccccc4[C@H]32)CC1 (racemic) | 
> 100 | > 100 | > 20 | > 20 | > 20 | 0.2 | N[C@H]1CC[C@@H](N[C@H]2[C@H]3Cc4ccccc4[C@H]32)CC1 (racemic) | 
79.7 | > 100 |  |  |  |  | COc1ncccc1CN[C@H]1[C@H]2Cc3ccccc3[C@H]21 (racemic) | 

Continued, compound first:

SMILES | IC50 [1] [µM] | IC50 [2] [µM] | IC50 (RPMI-8226 [4]) [µM] | IC50 (MV4-11 [5]) [µM] | IC50 (RPMI-8226 [6]) [µM] | IC50 (MV4-11 [7]) [µM] | IC50 [3] [µM]
N[C@H]1[C@H]2Cc3ccccc3[C@@H]12 (relative stereo) | > 100 | > 100 |  |  |  |  | 
N[C@H]1CC[C@@H](N[C@@H]2[C@H]3Cc4ccccc4[C@H]32)CC1 (racemic) | > 100 | > 100 |  |  |  |  | 
N[C@@H]1[C@H]2Cc3ccccc3[C@@H]12 (relative stereo) | > 100 | > 100 |  |  |  |  | 
NC1CCC(N[C@@H]2C[C@H]2c2ccccc2)CC1 (stereo partly specified) | > 100 |  | > 20 | > 20 | > 20 | 0.03 | > 100

— ChEMBL document CHEMBL4130492, “Tying up tranylcypromine: Novel selective histone lysine specific demethylase 1 (LSD1) inhibitors” (Eur J Med Chem, 2017)
